In patent US8067586B2, “Fused heteroaryl derivatives” (Astellas Pharma Inc., priority 2000, dated 2011):

Biological target: bovine p110α (Bos taurus, UniProt P32871)
Assay: Inhibition of PI3K (p110α subtype)
Assay type: biochemical
Conditions: not given

Sequence of bovine p110α (P32871 whole entry): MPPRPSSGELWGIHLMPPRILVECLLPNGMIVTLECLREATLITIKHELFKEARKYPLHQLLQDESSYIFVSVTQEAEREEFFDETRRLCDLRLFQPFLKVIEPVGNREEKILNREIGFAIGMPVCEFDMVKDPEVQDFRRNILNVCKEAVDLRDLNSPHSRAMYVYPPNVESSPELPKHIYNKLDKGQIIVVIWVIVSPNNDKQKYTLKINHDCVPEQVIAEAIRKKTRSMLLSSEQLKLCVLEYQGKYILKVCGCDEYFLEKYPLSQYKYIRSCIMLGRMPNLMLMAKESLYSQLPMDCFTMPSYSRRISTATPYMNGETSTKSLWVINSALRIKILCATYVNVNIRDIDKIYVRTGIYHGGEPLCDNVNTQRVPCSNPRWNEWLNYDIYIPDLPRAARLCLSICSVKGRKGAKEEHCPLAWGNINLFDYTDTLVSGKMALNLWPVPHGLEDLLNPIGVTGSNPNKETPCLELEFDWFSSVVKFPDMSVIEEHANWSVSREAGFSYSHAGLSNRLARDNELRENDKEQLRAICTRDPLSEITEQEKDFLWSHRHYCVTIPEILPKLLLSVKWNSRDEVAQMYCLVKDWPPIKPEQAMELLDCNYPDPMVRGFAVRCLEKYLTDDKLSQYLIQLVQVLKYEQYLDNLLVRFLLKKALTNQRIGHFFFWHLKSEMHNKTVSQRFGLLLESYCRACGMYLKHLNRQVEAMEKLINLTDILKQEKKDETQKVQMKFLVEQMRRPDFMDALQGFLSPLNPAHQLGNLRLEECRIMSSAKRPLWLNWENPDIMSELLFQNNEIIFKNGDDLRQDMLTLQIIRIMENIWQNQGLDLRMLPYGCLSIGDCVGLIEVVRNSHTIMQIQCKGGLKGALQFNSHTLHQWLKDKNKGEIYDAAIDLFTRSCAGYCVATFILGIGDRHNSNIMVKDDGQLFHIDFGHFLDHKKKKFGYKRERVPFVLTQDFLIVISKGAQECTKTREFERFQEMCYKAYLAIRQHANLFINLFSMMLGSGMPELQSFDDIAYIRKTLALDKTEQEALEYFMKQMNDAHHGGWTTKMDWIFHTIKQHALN

Row | Structure (SMILES) | IC50
1 | Nc1ccc(C(=O)Nc2cccc(-c3nc(N4CCOCC4)c4oc5ncccc5c4n3)c2)cn1 [Co 17, 6-amino-3′-(4-morpholinopyrido[3′,2′:4,5]furo[3,2-d]pyrimidin-2-yl)nicotinanilide] | < 1000 nM

Same assay, conditions: bovine p110α, 37° C. for 15 minutes; read-out: IC50, p110α subtype inhibition

Row | IC50 | Structure (SMILES)
2 | < 1000 nM | O=C(Nc1cccc(-c2nc(N3CCOCC3)c3oc4ncccc4c3n2)c1)c1ccccn1 [Co 10]

Test system: A375 cells
Assay: Melanoma cell growth inhibition (Alamar Blue)
Assay type: cell-based
Conditions: Homo sapiens, A-375, incubation for over 46 hours
Method: A375 cells from a melanoma cell line were cultured in DMEM medium (GIBCO) supplemented with 10% fetal bovine serum. A375 cells at 10,000 cells/100 μl were added to a 96 well plate which contained 1 μl/well of the test compounds (final concentration of 0.001˜30 μM). After incubation for over 46 hours, Alamar Blue reagent was added to the medium (10 μl/well).

Row | Structure (SMILES) | IC50
3 | Nc1ccc(-c2nc(N3CCOCC3)c3oc4ncccc4c3n2)cc1 [Co 33, 4-(4-morpholinopyrido[3′,2′:4,5]furo[3,2-d]pyrimidin-2-yl)aniline] | 330 to 4260 nM
4 | Oc1cccc(-c2nc(N3CCOCC3)c3oc4ncccc4c3n2)c1 [Co 50, 3-(4-morpholinopyrido[3′,2′:4,5]furo[3,2-d]pyrimidin-2-yl)phenol] | 330 to 4260 nM
5 | c1cc(OCCN2CCNCC2)cc(-c2nc(N3CCOCC3)c3oc4ncccc4c3n2)c1 [Co 69, 4-morpholino-2-[3-(2-piperazin-1-ylethoxy)phenyl]pyrido[3′,2′:4,5]furo[3,2-d]pyrimidine] | 330 to 4260 nM

The remaining lines, values ahead:

Row | IC50 | Structure (SMILES)
6 | 330 to 4260 nM | Oc1cccc(-c2nc(N3CCOCC3)c3cnccc3n2)c1 [Co 164, 3-(4-morpholinopyrido[4,3-d]pyrimidin-2-yl)phenol]
7 | 330 to 4260 nM | Oc1cccc(-c2nc(N3CCOCC3)c3ncccc3n2)c1 [Co 172, 3-(4-morpholinopyrido[3,2-d]pyrimidin-2-yl)phenol]
8 | 330 to 4260 nM | Oc1cccc(-c2nc(N3CCOCC3)c3ccncc3n2)c1 [Co 174, 3-(4-morpholinopyrido[3,4-d]pyrimidin-2-yl)phenol]
9 | 330 to 4260 nM | COc1ccc2nc(-c3cccc(O)c3)nc(N3CCOCC3)c2c1 [Co 186, 3-(6-methoxy-4-morpholinoquinazolin-2-yl)phenol]
10 | 330 to 4260 nM | Oc1cccc(-c2nc(N3CCOCC3)c3sccc3n2)c1 [Co 190, 3-(4-morpholinothieno[3,2-d]pyrimidin-2-yl)phenol]
11 | 330 to 4260 nM | Oc1cccc(-c2nc(N3CCOCC3)c3nccnc3n2)c1 [Co 191, 3-(4-morpholinopteridin-2-yl)phenol]
